Results: BindingDB's records for patent US20240190862 (Amgen, 2024)
pIC50: −log10 of the molar value.

What was measured:
[1] = molecular target: T1, GTPase KRas [1-169,G12C,C118A] (Homo sapiens, UniProt P01116, C118A/G12C); test: Coupled Nucleotide Exchange Assay (20 hours)
T1 construct: 1-169
Experimental: (§1) Purified GDP-bound KRAS protein (aa 1-169), containing either G12C or G12D, as well as C118A amino acid substitutions and an N-terminal His-tag, was pre-incubated in assay buffer (25 mM HEPES pH 7.4, 10 mM MgCl2, and 0.01% Triton X-100) with a compound dose-response titration for 20 hours. Following compound pre-incubation, purified SOS protein (aa 564-1049) and GTP (Roche 10106399001) were added to the assay wells and incubated for an additional 30 min. To determine the extent of inhibition of SOS-mediated nucleotide exchange, purified GST-tagged cRAF (aa 1-149), nickel chelate AlphaLISA acceptor beads (PerkinElmer AL108R), and AlphaScreen glutathione donor beads (PerkinElmer 6765302) were added to the assay wells and incubated for 10 minutes. The assay plates were then read on a PerkinElmer EnVision Multilabel Reader, using AlphaScreen technology, and data were analyzed using a 4-parameter logistic model to calculate IC50 values.

GTPase KRas [G12D,C118A] = GTPase KRas [G12D,C118A] (Homo sapiens, UniProt P01116, C118A/G12D); test: Coupled Nucleotide Exchange Assay (20 hours)
Experimental: as §1

[2] = molecular target: T1, GTPase KRas [1-169,G12C,C118A]; test: Coupled Nucleotide Exchange Assay (5min)
Experimental: as §1, with “either 5 min.” for “20 hours.”

T1 sequence (P01116 1-169 G12C/C118A): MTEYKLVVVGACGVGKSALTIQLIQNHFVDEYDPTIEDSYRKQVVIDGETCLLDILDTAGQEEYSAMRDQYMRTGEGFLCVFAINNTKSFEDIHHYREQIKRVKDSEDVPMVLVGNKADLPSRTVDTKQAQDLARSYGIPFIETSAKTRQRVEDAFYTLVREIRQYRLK
Chain of GTPase KRas [G12D,C118A] (P01116 whole entry G12D/C118A, looked up): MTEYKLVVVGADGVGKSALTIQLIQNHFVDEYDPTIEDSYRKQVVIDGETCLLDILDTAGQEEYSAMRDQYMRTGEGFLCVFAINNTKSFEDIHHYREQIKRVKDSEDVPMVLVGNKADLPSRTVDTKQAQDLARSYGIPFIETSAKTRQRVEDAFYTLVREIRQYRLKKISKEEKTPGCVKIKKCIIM

Compound | pIC50 [1] | pIC50 (GTPase KRas [G12D,C118A]) | pIC50 [2]
CC(=O)C(=O)N1CCN(c2nc(=O)n(-c3c(C)ccnc3C(C)C)c3nc(-c4ccccc4F)c(Cl)cc23)[C@@H](C)C1 [US20240190862, Example 3] | 4.50 | < 3.60 | –
Cc1ccnc(C(C)C)c1-n1c(=O)nc(N2CCN(C(=O)C=O)C[C@@H]2C)c2cc(Cl)c(-c3ccccc3F)nc21 [US20240190862, Example 4] | 7.41 | < 3.60 | 6.21
Cc1ccnc(C(C)C)c1-n1c(=O)nc(N2CCN(C(=O)COc3c(F)cccc3F)C[C@@H]2C)c2cc(Cl)c(-c3ccccc3F)nc21 [US20240190862, Example 8] | 4.62 | < 3.60 | –
Cc1ccnc(C(C)C)c1-n1c(=O)nc(N2CCN(C(=O)C=[N+]=[N-])C[C@@H]2C)c2cc(Cl)c(-c3ccccc3F)nc21 [US20240190862, Example 13] | 6.27 | < 3.60 | 5.07
